Assay results published in US8895624B2, “Treatment of osteoporosis” (Haoma Medica Ltd., priority 2009, dated 2014).

Assays:
[1] = system: osteoblast-like MG63 cells; assay: Viability of MG63 cells by uptake of 3H labelled Thymine in the formation of DNA; type: cell-based, human; conditions: concentrations 10^−8M to 10^−5M, compared with control samples
[2] = system: cultured cell lines derived from skin and liver; assay: Cell toxicity in cultured cell lines derived from skin and liver; type: cell-based
[3] = system: bone loss induced by oviarectomy; assay: Oviarectomized (oestrogen deficient) mouse model of osteoporosis, tibial μCT; type: in vivo, C57Black mice; conditions: OVx mice, 15 μg/mouse/day intraperitoneally, 5 weeks
Text: The most widely accepted animal model of osteoporosis is the oestrogen deficient rodent, with this model the effect of the present invention has been tested in vivo. All procedures were done under Home Office licence and full local ethical requirements. C57Black mice were randomly assigned to receive total bi-lateral oviarectomy or sham operation. The oviarectomized animals were randomly assigned for treatment or to an untreated control group. At operation eight animals were in each group. • The mice were housed under standard animal house conditions with 12 hour light dark cycles in temperature and humidity controlled conditions for 5 weeks. The Sham and control oviarectomized mice received 10% ethanol in saline vehicle injections intraperitoneally once per day. The NaQuinate treated mice received a single injection (15 μg/mouse/day) administered in 10% ethanol in saline injections intraperitoneally. All mice received the same volume of test sample and this complied with Home Office regulations. • After 5 weeks treatment the animals were sacrificed by a Schedule 1 method and the tibiae removed for X-ray micro-Computer Tomography (μCT) imaging analyses.

[4] = system: bone loss in neurectomized limbs; assay: Disuse osteoporosis induced by sciatic neurectomy, tibial μCT; type: in vivo, mice
Procedure: Disuse osteoporosis was induced by right side sciatic neurectomy (SN). Mice were anaesthetized with oxygen and halothane and SN was achieved by resecting a 3-4 mm segment of the sciatic nerve posterior to the hip joint. On the 4th day after surgery mice were treated with either; control or NaQuinate for 5 days/week for 2 weeks. The tibias of both limbs were analysed by micro computerized tomography (μCT).

[5] = system: interleukin-6 release from MG63 osteoblast-like cells; assay: Inhibition of E. coli LPS-stimulated interleukin-6 release from cultured MG63 osteoblast-like cells; type: cell-based, human; conditions: E. coli LPS 25 ng/ml
Text: 1. There are numerous factors that regulate bone physiology. Targeting the agents that induce bone resorption by recruiting/activating the cells that induce bone loss (the osteoclasts) has had limited exposure/efficacy. Most current therapies target the osteoclasts once they have been recruited or activated. A family of locally (bone) produced proteins called cytokines can induce a range of stimuli that can affect osteoclast number/activity. One of these cytokines is called interleukin-6 (IL-6). IL-6 is released by many cell types, including the bone forming cells (osteoblasts), following challenge from a range of agonists. These agonists can be physiological (1,25(OH)2 vitamin D3, interleukin-1β) or pathophysiological (interleukin-1β; bacterial endotoxin). • In vitro studies focussed on an immortalised osteoblast-like cell line called MG63 that was derived from a human osteosarcoma (bone cancer). These cells were cultured and screened for their ability to synthesize and release a range of cytokines including IL-6. Due to the well described activities of IL-6 induced bone loss this cytokine was focussed upon (see Manolagas S. C., Ann N Y Acad. Sci. 1998 May 1; 840:194-204). […] IL-6 can be measured by commercial immunoassays, for example, the QuantiGlo IL-6 Immunoassay from R&D systems.

[6] = neurectomized limbs, treated 5 days/week for 2 weeks
[7] = normal (non-neurectomized) bone

Compound	DNA synthesis (3H-Thymine incorporation) of MG63 cells [1]	cell toxicity [2]	percentage bone content (bone volume) in the trabecular compartment [3]	trabecular number, tibial trabecular compartment [3]	bone loss assessed by % bone volume [4, 6]	bone loss assessed by trabecular number [4, 6]	normal bone trabecular number [4, 7]	normal bone volume [4, 7]	inhibition of LPS-stimulated interleukin-6 release (in words) [5]
CC1=C(C/C=C(\C)CCC(=O)O)C(=O)c2ccccc2C1=O [NaQuinate (VIII), (4E)-6-(1,4-dihydro-2-methyl-1,4-dioxonaphthalen-3-yl)-4-methylhex-4-enoic acid]	continue normal DNA synthesis under all concentrations tested	lack of cell toxicity	completely attenuated the bone loss	completely attenuated the bone loss	inhibits bone loss in neurectomized limbs	inhibits bone loss in neurectomized limbs	does not alter normal bone trabecular number	does not alter normal bone volume	
CC1=C(C/C=C(\C)C(=O)O)C(=O)c2ccccc2C1=O [KCAT-5C (XIV), (2E)-4-(1,4-dihydro-2-methyl-1,4-dioxonaphthalen-3-yl)-2-methylbut-2-enoic acid]									only active inhibiting Interleukin-6 from cultured MG63 osteoblast-like cells at very high concentrations (10^−5 M)
CC1=C(CCCCCCCC(=O)O)C(=O)c2ccccc2C1=O [XV, 8-(1,4-dihydro-2-methyl-1,4-dioxonaphthalen-3-yl)octanoic acid]									completely inactive
